Consider two compounds from BindingDB's records for doi:10.1021/jm300844m (The University of Newcastle, 2013).

pIC50: −log10 of the molar value.

In general, pIC50 refers to −log10 of the IC50, conventionally taken in molar units.

The nature of the test: Inhibition of dyn2 in human U2OS cells assessed as clathrin-mediated endocytosis of Tfn after 30 mins.

As to `CCCCCCCCNCc1cn(CCCN(C)C)c2ccccc12`, the negative-log IC50 (pIC50) is 5.46.
In the case of `CCCCCCCCNC(=O)/C(C#N)=C/c1cn(CCCN(C)C)c2ccccc12` [2-Cyano-N-octyl-3-(1-(3-dimethylaminopropyl)-1H-indol-3-yl)-acrylamide], the negative-log IC50 (pIC50) is 5.30.
